Measurements published in PubChem BioAssay AID1117356 (Cheminformatics & Chemogenomics Research Group (CCRG), …, 2015).
Activity calls are given as the source filed them. How the calls were made is not given here.

Target: Receptor-type tyrosine-protein kinase FLT3 (Homo sapiens) (UniProt P36888)
Assay: inhibitors of Homo sapiens fms-like tyrosine kinase 3, primary HTS, cell-free, LANCE Ultra TR-FRET, NPC library from NCATS (AID 1117356)
Conditions: recombinant FLT3, LANCE Ultra TR-FRET kinase assay, stronger effect = higher value

Chain of Receptor-type tyrosine-protein kinase FLT3 (Homo sapiens) (P36888 whole entry, looked up): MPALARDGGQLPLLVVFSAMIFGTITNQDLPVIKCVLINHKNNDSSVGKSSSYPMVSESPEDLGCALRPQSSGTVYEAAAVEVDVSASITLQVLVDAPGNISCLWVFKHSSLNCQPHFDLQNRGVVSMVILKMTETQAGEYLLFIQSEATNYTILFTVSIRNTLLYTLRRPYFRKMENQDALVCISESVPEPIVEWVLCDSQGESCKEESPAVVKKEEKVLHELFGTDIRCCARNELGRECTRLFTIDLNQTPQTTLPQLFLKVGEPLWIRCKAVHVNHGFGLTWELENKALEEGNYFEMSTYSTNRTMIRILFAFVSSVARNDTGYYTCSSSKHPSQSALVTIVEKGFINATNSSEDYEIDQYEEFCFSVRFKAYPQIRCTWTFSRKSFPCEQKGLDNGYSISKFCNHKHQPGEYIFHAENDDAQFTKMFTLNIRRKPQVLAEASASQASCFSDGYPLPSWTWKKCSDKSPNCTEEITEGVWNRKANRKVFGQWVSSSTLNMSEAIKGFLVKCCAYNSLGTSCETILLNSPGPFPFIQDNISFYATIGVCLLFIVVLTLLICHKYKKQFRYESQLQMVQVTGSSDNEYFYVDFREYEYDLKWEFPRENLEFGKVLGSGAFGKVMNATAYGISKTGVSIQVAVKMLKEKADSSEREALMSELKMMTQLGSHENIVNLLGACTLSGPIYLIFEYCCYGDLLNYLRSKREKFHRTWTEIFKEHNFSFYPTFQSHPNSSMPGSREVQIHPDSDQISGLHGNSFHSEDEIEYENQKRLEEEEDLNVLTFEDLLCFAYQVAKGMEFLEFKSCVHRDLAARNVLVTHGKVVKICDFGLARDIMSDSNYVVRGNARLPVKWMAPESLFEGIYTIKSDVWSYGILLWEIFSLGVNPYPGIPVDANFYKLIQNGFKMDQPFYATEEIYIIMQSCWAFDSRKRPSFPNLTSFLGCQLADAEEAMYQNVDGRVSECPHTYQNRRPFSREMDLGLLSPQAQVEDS

Compound | inhibition (at 20 µM) | inhibition (inhibition, at 0.2 µM) [%] | inhibition (inhibition, at 2 µM) [%]
COc1cccc2c1C(=O)c1c(O)c3c(c(O)c1C2=O)C[C@@](O)(C(C)=O)C[C@@H]3O[C@H]1C[C@H](N)[C@H](O)[C@H](C)O1 | -2.27% (inactive) | 0.52 | -18.3
CCCCCCCCCCCCCCCC[n+]1ccccc1 | -7.99% (inactive) | -19.8 | 2.47
Oc1c(Cl)cc(Cl)c2cccnc12 | -9.04% (inactive) | -28.1 | -0.96
Cc1cc(C)c(/C=C2\C(=O)Nc3ccccc32)[nH]1 | 97.7% | 93.8 | 98.6
CC(=O)[C@]1(O)Cc2c(O)c3c(c(O)c2[C@@H](O[C@H]2C[C@H](N)[C@H](O)[C@H](C)O2)C1)C(=O)c1ccccc1C3=O |  | -8.58 | -59.1
COC(=O)Nc1nc2ccc(C(=O)C3CC3)cc2[nH]1 | 68.8% | -3.31 | 33.1
CCCCCCCCCCCCCC[N+](C)(C)C | 9.63% (inactive) | -25.3 | 11.1
Oc1c(Cl)cc(Cl)cc1Sc1cc(Cl)cc(Cl)c1O | 13.6% (inactive) | -17 | 3.25
Cn1cnc([N+](=O)[O-])c1Sc1ncnc2nc[nH]c12 | -6.53% (inactive) | -22.4 | 4.78
CCCN(CCC)C(=O)C(CCC(=O)OCCCN1CCN(CCOC(=O)Cc2c(C)n(C(=O)c3ccc(Cl)cc3)c3ccc(OC)cc23)CC1)NC(=O)c1ccccc1 (stereo not drawn) | 9.63% (inactive) | -10.3 | 12.7
CCCCCCNC(=O)n1cc(F)c(=O)[nH]c1=O | -1.76% (inactive) | -6.64 | -7.12
CC(C)C[C@H](NC(=O)[C@H](CCc1ccccc1)NC(=O)CN1CCOCC1)C(=O)N[C@@H](Cc1ccccc1)C(=O)N[C@@H](CC(C)C)C(=O)[C@@]1(C)CO1 | 8.47% (inactive) | -8.96 | 15

The remaining lines, values ahead:

inhibition (at 20 µM) | inhibition (inhibition, at 0.2 µM) [%] | inhibition (inhibition, at 2 µM) [%] | Compound
27.5% (inactive) | -4.81 | 25.2 | Cc1ccc2nc(N)[nH]c(=O)c2c1Sc1ccncc1
-76.3% (inactive) | -18.8 | 17.2 | CN(C)c1ccc2nc3ccc(=[N+](C)C)cc-3sc2c1
-9.66% (inactive) | -10.8 | 5.38 | COC(=O)Nc1nc2ccc(Sc3ccccc3)cc2[nH]1
-17.5% (inactive) | -18.3 | 1.39 | O=C(NOCC1CC1)c1ccc(F)c(F)c1Nc1ccc(I)cc1Cl
-229% (inactive) | -7.18 | 0.42 | COc1cc(NCc2ccc3nc(N)nc(N)c3c2C)cc(OC)c1OC
-19.6% (inactive) | -33.4 | -2.36 | CC[C@@]1(O)C(=O)OCc2c1cc1n(c2=O)Cc2c-1nc1ccccc1c2/C=N/OC(C)(C)C
96.3% | 14.3 | 79.6 | C=CC(=O)Nc1cc2c(Nc3ccc(F)c(Cl)c3)ncnc2cc1OCCCN1CCOCC1
60.2% | 16.3 | 51 | COC(=O)c1nc(Cl)c(Cl)nc1N
-1.26% (inactive) | -14.9 | 5.22 | COc1cc2c(c(OC)c1OC)-c1ccc(OC)c(=O)cc1[C@@H](NC(C)=O)CC2
62.5% | -7.52 | 65.4 | Cc1cc(=O)c2c(O)c3c(O)cc(=O)c4c3c3c(cc(O)c1c23)C(C)(C)C=4O
10.2% (inactive) | -15.1 | 22.7 | CCCSc1ccc2nc(NC(=O)OC)[nH]c2c1
